Experimental data reported in PubChem BioAssay AID179 (DTP/NCI, 2004).
Where “and” joins values, the source holds several entries; their conditions need not be identical. Equal values may be shown once. Calls of active or inactive are those of the source.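 How the source made its calls: active means compounds giving half or more protection of infected cells from virus-caused growth loss, again on retest; inactive means the rest.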 Where a SMILES comes first, the peptide text is derived from it.

Tested on: CEM cells HIV-1 protection, formazan growth assay
Assay: NCI AIDS Antiviral Assay
Settings: for IC50: measured here: growth of uninfected CEM cells
Summary of the method: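 Human CEM cells, uninfected and HIV-1-infected, received five drug concentrations, and growth was read by soluble formazan assay. Compounds giving at least 50% protection were retested; reproducible 100% protection defined confirmed active.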

Structure (SMILES) | EC50 [µM] | IC50 | outcome
COc1cc(C=O)c(-c2cc(OC)c(OC)cc2C=O)cc1OC | > 44.7 | > 44.7 µM | –
CCOc1c2c(nn(C)c1=O)Oc1ccccc1N2CCCN1CCOCC1 | > 589 | 19.1 µM | –
O=c1n(/N=C/c2ccccc2)c(=O)n2n1C1C=CC2CC1 | > 200 | > 200 µM | –
COc1ccc2nc3cc([N+](=O)[O-])ccc3c(NNc3ccc(Cl)cc3)c2c1 | > 200 | 33.1 µM | –
CSc1ccc(N2C(=O)C3c4[nH]c5ccccc5c4C4CCC(C(C)(C)C)CC4C3C2=O)cc1 (configuration not stated) | > 2.19 | > 2.19 µM | –
COc1ccc2c(=O)c(C)c(/C=C/c3ccco3)oc2c1 | > 158 | 27.5 µM | –
O=S(=O)(c1ccc(Cl)c(Cl)c1)c1ccc(Cl)c(Cl)c1 | > 200 | > 200 µM | –
O=C(c1ccccc1)n1[nH]c(=O)n(-c2ccc(Cl)cc2)c1=O | > 200 | > 200 µM | –
CCC12OCC(C)(C)N1OC(=O)N2c1ccccc1 (configuration not stated) | > 200 | > 200 µM | –
COC(=O)C[CH](C(=O)OC)[Ge]([CH3])([CH3])[S]c1ccccc1 (configuration not stated) | > 100 | 18.2 µM | –
Clc1ccc(C2=NOC3C4CCC(C4)C23)cc1 (configuration not stated) | – | – | inactive
CC1CC(=O)C(CC(=O)O)[C@H]1C(C(=O)C(=O)Nc1cc(Cl)ccc1Cl)[N+](=O)[O-] (some centres not stated) | – | – | inactive
O=[n+]1c2c(n([O-])c3ccccc31)-c1cccc3cccc-2c13 | > 200 | 129 µM | –
O=C1NC(=O)/C(=C\c2ccccc2)C2=C1CCCC2 | > 74.1 | 15.5 µM | –
Cc1ccc2nc(Sc3c([N+](=O)[O-])ncn3C)[nH]c2c1 | > 5.01 | 4.79 µM | –
COc1ccc(C(=O)c2ccc(OC)c(S(=O)(=O)n3ccnc3)c2)cc1S(=O)(=O)n1ccnc1 | > 35.5 | 32.4 µM | –
COC1(OC)CC2C(=O)N(Cc3ccccc3)C1C=C2S(=O)(=O)c1ccccc1 (configuration not stated) | – | – | inactive
CN(C)c1ccc(/C=c2\sc3nnc(-c4cccnc4)n3c2=O)cc1 | > 20.9 | > 20.9 µM | –
CC(C)OC(=S)SSC(=S)OC(C)C | > 200 | 6.92 µM | –
CC1(C)O[C@@H](CCl)C[C@@H](C#N)O1 | – | – | inactive
C[C@H](N[C@H]1CCC[C@]1(O)C#Cc1ccc2c(c1)OCO2)c1ccccc1 | > 50.1 | 28.8 µM | –
CN1C(=O)CC2CCCN2C1=O (configuration not stated) | > 200 | > 200 µM | –

Structure (SMILES) | EC50 [µM] | IC50 | outcome
C/C=C(\C(=O)OC)C1CC2OC(=O)C1(C=O)C13CCNC21N(C)c1ccccc13 (configuration not stated) | > 126 | 117 µM | –
CC(C)CC(N)C(=O)NC(CC(=O)O)C(=O)NC(CCCCN)C(=O)NC(C)C(=O)NC(CO)C(=O)NC(Cc1ccc(O)cc1)C(=O)NC(CO)C(=O)NC(C(=O)NC(CC(N)=O)C(=O)NC(Cc1cnc[nH]1)C(=O)NC(CC(C)C)C(N)=O)C(C)O (configuration not stated) (H-LDKASYSTNHL-NH2; configuration not given here) | > 50.1 | > 50.1 µM | –
Cc1ccc(S(=O)(=O)OCC2OC(OC3(CO)OC(COS(=O)(=O)c4ccc(C)cc4)C(O)C3O)C(O)C(O)C2O)cc1 (configuration not stated) | > 200 | > 200 µM | –
COC(=O)C1(CC(=O)OC(C)(C)C)NCCc2c1[nH]c1ccccc21 (configuration not stated) | > 115 | 95.5 µM | –
Cc1c2sc3ccccc3[nH]c2nc2[nH]c3ccccc3sc12 | > 38 | 14.8 µM | –
CCCCOCn1c(=O)[nH]c(=O)c2ccccc21 | > 200 | 162 µM | –
O=C(O)COc1ccc(C(=O)/C(SS/C(C(=O)c2ccc(OCC(=O)O)c(Cl)c2Cl)=C2\C=C(c3ccc(Br)cc3)SS2)=C2/C=C(c3ccc(Br)cc3)SS2)c(Cl)c1Cl | – | – | inactive
Nc1ncnc2c1ncn2C1OC(CO)C2NP(=O)(N(CCCl)CCCl)OC21 (configuration not stated) | > 200 | > 200 µM | inactive
CN(/N=C/c1cccc2cccnc12)c1ccccc1 | – | – | inactive
O=c1ssc(=Nc2ccc(Cl)cc2)n1-c1ccc(Cl)cc1 | > 200 | 8.91 µM | –
O=c1oc2ccccc2c2c1SC(c1ccncc1)C2 (configuration not stated) | > 200 | > 200 µM | –
CC1CN(c2ccccc2)NC1=O (configuration not stated) | > 200 | > 200 µM | –
NC(N)=NS(=O)(=O)c1ccc(N=c2c3ccccc3n(-c3ccccc3)c3ccccc23)cc1 | – | – | inactive
CC(=O)OCC1OC(n2c(C)c(C(C)=O)c(-c3ccco3)c(C#N)c2=S)C(OC(C)=O)C(OC(C)=O)C1OC(C)=O (configuration not stated) | > 200 | 112 µM and 87.1 µM | –
CC1=NN(c2ccccc2)C(=O)C1N=Nc1ccc(S(=O)(=O)Nc2ncccn2)cc1 (configuration not stated) | > 200 | 36.3 µM | –
CC(CCC(N)=O)(CCC(N)=O)[N+](=O)[O-] | > 200 | > 200 µM | –
O=C1C=C(N2CCCC2)c2ncccc2C1=O | – | – | inactive
Cc1ccc(C2=Nn3c(nc4sc(-c5ccccc5)cc4c3=O)SC2)cc1 | > 100 | > 100 µM | –
COC(CN(C)C(=O)C(C)NC(=O)c1ccccc1)OC (configuration not stated) | – | – | inactive
OCC1CC(F)C(n2cnc3c(I)ncnc32)O1 (configuration not stated) | > 138 | 63.1 µM | –
COC(=O)C(Cc1nc2ccc(Cl)cc2[nH]c1=O)C(=O)C(=O)Nc1ccccc1[N+](=O)[O-] (configuration not stated) | > 148 | > 148 µM | –
COc1ccc(-c2c(C#N)c(S)n(NS(=O)(=O)c3ccc(C)cc3)c(=O)c2C#N)cc1 | > 200 | 9.33 µM | –

Structure (SMILES) | EC50 [µM] | IC50 | outcome
c1ccc(N=C(N2CCCC2)N(CCN2CCCC2)c2ccccc2)cc1 | > 200 | 9.33 µM | –
Cc1cnc2c(c1)CCCC2C(N)=S (configuration not stated) | – | – | inactive
O=C(C=Nc1ccccc1C(=O)[O-])c1cccs1.O=C(C=Nc1ccccc1C(=O)[O-])c1cccs1.[Cu+2] | – | – | inactive
CCN(CC)C(C(=O)Nc1c(C)cccc1C)N(CC)CC | > 200 | > 200 µM | –
COC(=O)/C(C#N)=C1\N=NNN1CCCN1CCOCC1 | – | – | inactive
C=C1[C@H]2C[C@H]3[C@@H]4N5C[C@]6(C)CCCC47C6[C@H]5CC3([C@@H]1O)[C@H]7[C@H]2O | – | – | inactive
CCCCCCCC[N+]12CN3CN(CN(C3)C1)C2 | > 759 | 39.8 µM | –
CN(/N=C/c1cccs1)c1ccc(Cl)cc1[N+](=O)[O-] | > 200 | 60.3 µM | –
COc1cc(C2c3cc4c(cc3CC3COC(=O)N32)OCO4)cc(OC)c1OC (configuration not stated) | > 25.1 | 1.38 µM | –
CS(=O)(=O)c1nc(NCCc2ccccc2)c2cnn(C3CCCCO3)c2n1 (configuration not stated) | – | – | inactive
C=CC(C)(C)C(=C)C(=O)N(C)c1ccccc1I | > 200 | 89.1 µM | –
N#C/C(=C\c1ccc(C#N)cc1)C(=O)c1ccccc1 | > 97.7 | 41.7 µM | –
CC1(C)C2CCC1(CS(=O)(=O)Nc1ccccc1)C(=O)C2 (configuration not stated) | > 200 | > 200 µM | –
CC(=O)OC1=NC(C)c2c1cc(OC(C)=O)[nH]c2=O (configuration not stated) | > 14.5 | > 14.5 µM | –
CC(=O)OCC1OC(n2c(-c3ccccc3)cc(-c3ccccc3)c(C#N)c2=O)C(OC(C)=O)C(OC(C)=O)C1OC(C)=O (configuration not stated) | > 16.6 | > 16.6 µM | –
CCOC(=O)/C(C#N)=C/c1ccccc1Br | – | – | inactive
Cc1ccc2[nH]c3c(c2c1)C1CCC(C(C)(C)C)CC1C1C(=O)N(c2ccc(Oc4ccccc4)cc2)C(=O)C31 (configuration not stated) | > 200 | 10.5 µM | –
Cc1ccccc1C1CC(c2ccccc2)=NO1 (configuration not stated) | > 57.5 | > 57.5 µM | –
COC(=O)C(=O)C(C(C)=O)C(=O)C(=O)Nc1ccc(C)cc1C (configuration not stated) | > 112 | > 112 µM | –
CCCCCCCCCCCCSC(=S)c1c(C)[nH]n(CCCCCCCCCCCC)c1=O | > 51.3 | > 51.3 µM | –
CC(C(O)c1ccccc1)C(O)(C(F)(F)F)C(F)(F)F (configuration not stated) | > 200 | 95.5 µM | –
CO[C@H](C(=O)[C@@H](O)[C@@H](C)O)[C@@H]1Cc2cc3cc(OC4CC(OC5CC(O)C(O)C(C)O5)C(O)C(C)O4)c(C)c(O)c3c(O)c2C(=O)[C@H]1OC1CC(OC2CC(OC3CC(C)(O)C(O)C(C)O3)C(O)C(C)O2)C(O)C(C)O1 (some centres not stated) | > 0.0302 | > 0.0302 µM | –

Structure (SMILES) | EC50 [µM] | IC50 | outcome
O=C(CBr)OCCCS(=O)(=O)O | > 200 | > 200 µM | –
Cc1nn(-c2ccccc2)c2nc(N3CCOCC3)nnc12 | – | – | inactive
O=C(Nc1ccccc1)n1cc(-c2ccccn2)c(N2CCOCC2)n1 | > 195 | 53.7 µM | –
c1ccc(CNN2CN(NCc3ccccc3)CN(NCc3ccccc3)C2)cc1 | > 100 | 70.8 µM | –
O=C1C=C(N2CCOCC2)C(=O)c2nccnc21 | > 15.5 | 10.2 µM | –
Cc1cc(C)c2nc3c(c(C(O)C4CCCCN4)c2c1)CC/C3=C\c1ccc(Cl)cc1 (configuration not stated) | > 22.9 | > 22.9 µM | –
O=C(CC(O)(C(F)(F)F)C(F)(F)F)c1cccs1 | > 200 | > 200 µM | –
COc1ccc(/C=C(\C#N)c2ccccn2)cc1OC | > 200 | 50.1 µM | –
CC(C)=CCc1c(O)ccc2c1OC1c3ccc(O)c(CC=C(C)C)c3OCC21 (configuration not stated) | – | – | inactive
CNC(=O)c1cc2nc3ccccc3c(=O)n2c2ccccc12 | > 100 | > 100 µM | –
OCCN1C(c2ccccc2)=CN2C=CSC21 (configuration not stated) | > 200 | 29.5 µM | –
N#CCCN(CCC#N)CCN(CCN(CCC#N)CCC#N)CCN(CCC#N)CCC#N | > 200 | > 200 µM | –
CCCCOC(=O)c1c2nc3c(C(=O)OCCCC)ccc(C)c3oc-2c(C)c(=O)c1NC(C)=O | > 151 | 24.5 µM | –
COC(=O)C(Cc1nc2ccccc2[nH]c1=O)C(=O)C(=O)Nc1ccc([N+](=O)[O-])cc1[N+](=O)[O-] (configuration not stated) | > 55 | 25.7 µM | –
N#CCCN(c1ccc(C=Nc2ccccc2)cc1)S(=O)(=O)c1ccccc1 | – | – | inactive
NC1=NN(c2ccccc2)C(=O)C1C(=O)C(=O)Nc1cccc(C(F)(F)F)c1 (configuration not stated) | – | – | inactive
CC1CC(=O)Nc2ccc(Cl)cc2N1C(=O)CN1CCC(CCCCN(C)C)CC1 (configuration not stated) | > 251 | 129 µM | –
Cc1cc(Cl)c(O)c(-c2cc(-c3ccc([N+](=O)[O-])cc3)c3c(N)[nH]c(=O)nc3n2)c1 | > 200 | 5.25 µM | –
Cc1cc(-c2c(O)c3ccc4ccccc4c3oc2=O)no1 | > 20 | > 20 µM | –
